Experiments:
[1] = test system: Caco-2 cell monolayers; assay: TEER of Caco-2 cell monolayers; assay type: cell-based, human; conditions: Caco-2 monolayers; HM formulations 40 μg/mL, TMC 0.1% w/w
[2] = test system: Caco-2 cell homogenates; assay: Degradation in Caco-2 cell homogenates; assay type: in vitro ADME, human; conditions: 37°C, within 120 minutes
[3] = mice, 60 mg/kg, within 1 hour
[4] = test system: Caco-2 cells; assay: Uptake into Caco-2 cell monolayers; assay type: in vitro ADME, human
[5] = test system: Caco-2 cells; assay: MTT cytotoxicity assay; assay type: cell-based, human; conditions: 10–200 μg/mL
[6] = MTT cytotoxicity assay; assay type: cell-based, human; conditions: human, Caco-2 cells
[7] = Bidirectional transport across Caco-2 cell monolayers; assay type: in vitro ADME; conditions: human
[8] = In vivo pharmacokinetic study in rats; parameters: species or system Sprague Dawley rats
[9] = Sprague Dawley, rat, plasma, po, 60 mg/kg

## COc1ccc2c(c1)[nH]c1c(C)nccc12 [HM, Harmine]
[1]
  Reduction of TEER: lower than 15%
[2]
  HM degraded: more than 60%
[3]
  Decrease of retention amount in the stomach: about 10%
[4]
  Effect of endocytosis inhibitor CPZ on uptake: did not affect
  Effect of energy inhibitor NaN3 on uptake: did not affect
  Effect of p-gp inhibitor CyA on uptake: did not affect
[5]
  Toxicity to Caco-2 cells: almost no toxicity
[6]
  viability at 24 h, 200 μg/mL: > 90%
[7]
  Papp at 2 h: > 1 ×10⁻⁶ cm/s
  Papp at 2 h, 40 μg/mL: 5.11 ± 0.69 ×10⁻⁶ cm/s
[8]; Sprague Dawley, rat, plasma, iv, 20 mg/kg
  AUC: 12900 ± 1250 ng·h/mL
[8]; [9]
  AUC: 9760 ± 2340 ng·h/mL
  Cmax: 3110 ± 320 ng/mL
[8]; rats, IG 60 mg/kg versus HM IV 20 mg/kg
  BA (oral bioavailability): 25.25±6.05%

Reference: paper PMC4725628 (International Journal of Nanomedicine, 2016)
